By GI50 is commonly meant the concentration at which growth is held to half of that of the control.

The values that follow come from ChEMBL document CHEMBL1201862, “PubChem BioAssay data set” (2004).

Test systems include OVCAR-8; IGROV-1; HL-60; HT-29; U-251; OVCAR-4; UO-31; LOX IMVI; SW-620; HCT-116; OVCAR-5; CCRF-CEM; SN12C; EKVX; SNB-19; HOP-62; SNB-75; UACC-62; SF-295; SK-OV-3.
Holding throughout (assay): DTP human tumour cell line panel, 48 h

Structures are written as SMILES.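 The compound was tested at five concentrations on cells cultured in 96-well plates, with a 48-hour exposure period. At the GI50, growth is halved.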 Calls of active or inactive are those of the source. No stated cut-off is given here; in the data, active = GI50 up to about 1.1 µM and inactive = higher. Where a SMILES comes first, the peptide text is derived from it. The star is where a group is joined. Boc = CC(C)(C)OC(=O)*

Take `c1ccc(-c2nnc(-c3nsc4ccccc34)o2)cc1`: the GI50 in the test on OVCAR-8 is > 100 µM (inactive); with IGROV-1, 60.4 µM (inactive); with HL-60, > 100 µM (inactive); with HT-29 it was > 100 µM (inactive); with U-251, > 100 µM (inactive); with OVCAR-4, > 100 µM (inactive). Moreover, the GI50 was 19.5 µM (inactive) with UO-31; > 100 µM (inactive) in the test on LOX IMVI; > 100 µM (inactive) in the test with SW-620; > 100 µM (inactive) with HCT-116; > 100 µM (inactive) in the test on OVCAR-5; > 100 µM (inactive) with CCRF-CEM. In addition, the GI50 in the test on SN12C was > 100 µM (inactive); with EKVX, 41.4 µM (inactive); in the test with SNB-19 it was > 100 µM (inactive); with HOP-62, > 100 µM (inactive); in the test with SNB-75 it was 2.56 µM (inactive); with UACC-62 it was > 100 µM (inactive).

Consider `CC(C)(C)OC(=O)NC(Cc1ccccc1)C(=O)N1CCCC1C(N)=O` (stereo not drawn) (Boc-Phe-Pro-NH2; configuration not given here), for which the GI50 in the test on OVCAR-8, with IGROV-1, in the test on SF-295, in the test on HL-60, in the test on HT-29 and with SK-OV-3 was > 100 µM (inactive) each time. Further, the GI50 in the test with OVCAR-4, in the test with LOX IMVI, with SW-620, in the test with HCT-116, in the test with CCRF-CEM and with EKVX was > 100 µM (inactive) throughout. The GI50 in the test with SNB-19, in the test with HOP-62 and with UACC-62 was > 100 µM (inactive) throughout.

As for `Cc1ccc(N2C(=O)/C(=C3\SC(C(N)=O)=C(N)N3c3ccccc3)SC2=S)cc1`, the GI50 was 46 µM (inactive) with OVCAR-8; > 100 µM (inactive) with IGROV-1; 24.9 µM (inactive) in the test with SF-295; > 100 µM (inactive) in the test on HL-60; 44.3 µM (inactive) with HT-29; 28.2 µM (inactive) in the test with SK-OV-3. The GI50 in the test on U-251 was 71.6 µM (inactive); in the test on UO-31, > 100 µM (inactive); in the test with SW-620, > 100 µM (inactive); in the test with HCT-116, 71 µM (inactive); in the test with OVCAR-5, 2.21 µM (inactive); in the test with CCRF-CEM, > 100 µM (inactive). For the same compound, the GI50 is 57.5 µM (inactive) with SNB-19, 25.8 µM (inactive) with HOP-62, 7.91 µM (inactive) in the test on SNB-75 and > 100 µM (inactive) in the test with UACC-62.

Regarding `COc1ccc(-c2cc(O)c3ccc(C)nc3n2)cc1`, the GI50 in the test on OVCAR-8 is > 100 µM (inactive); in the test on IGROV-1 it was 43.2 µM (inactive); in the test with HT-29, 81.5 µM (inactive); with SK-OV-3, > 100 µM (inactive); with OVCAR-4, > 100 µM (inactive); in the test with UO-31 it was > 100 µM (inactive). The GI50 in the test on LOX IMVI, with SW-620, in the test on OVCAR-5, with CCRF-CEM, in the test with SN12C and in the test on EKVX was > 100 µM (inactive) in each case. Moreover, the figures for the GI50 in the test on SNB-19, in the test on HOP-62 and in the test with UACC-62 were > 100 µM (inactive), > 100 µM (inactive) and 86.1 µM (inactive), respectively.

For the compound `CN1NC(c2ccc(Cl)cc2)=C(C#N)C(=O)CC1c1ccccc1` (centres undefined), the GI50 with SF-295, in the test on HL-60, in the test on HT-29, in the test on SK-OV-3, in the test on U-251 and in the test with OVCAR-4 was > 100 µM (inactive) in each case. The GI50 in the test with LOX IMVI, in the test with SW-620, in the test on HCT-116, with OVCAR-5, in the test on SNB-19 and with SNB-75 was > 100 µM (inactive) each time.

Take `O=C(NN1C(=O)C(Cl)C1c1ccccc1O)c1ccccc1O` (centres undefined): the GI50 in the test with OVCAR-8 is 26.4 µM (inactive); in the test on IGROV-1 it was 30.6 µM (inactive); in the test on SF-295, 26.8 µM (inactive); in the test on HL-60, 6.11 µM (inactive); in the test with HT-29 it was 6.61 µM (inactive); in the test on SK-OV-3 it was 16.1 µM (inactive). Further, the GI50 was 16.2 µM (inactive) in the test with U-251; 22.5 µM (inactive) with OVCAR-4; 21.3 µM (inactive) in the test on UO-31; 32.7 µM (inactive) with SW-620; 3.69 µM (inactive) in the test on HCT-116; 5.12 µM (inactive) in the test with CCRF-CEM. The GI50 with SN12C is 89.5 µM (inactive); in the test on EKVX, 29.4 µM (inactive); in the test with SNB-19, 0.365 µM (active); with HOP-62, 29 µM (inactive); with SNB-75, 49.9 µM (inactive); with UACC-62, 27.9 µM (inactive).

Consider `CC(Cc1ccccc1)Nc1ncnc2c1ncn2C1OC(CO)CC1O` (centres undefined), for which the GI50 in the test on OVCAR-8 was > 100 µM (inactive); in the test with IGROV-1, > 100 µM (inactive); in the test with SF-295, 1.93 µM (inactive); in the test with HT-29 it was > 100 µM (inactive); with SK-OV-3 it was 3.71 µM (inactive); in the test with U-251, > 100 µM (inactive). The GI50 in the test with OVCAR-4, in the test on UO-31, in the test with LOX IMVI, with SW-620, with HCT-116 and in the test on OVCAR-5 was > 100 µM (inactive) throughout. For the same compound, the GI50 in the test on CCRF-CEM, with SN12C, with EKVX, in the test on SNB-19, in the test with HOP-62 and with SNB-75 was > 100 µM (inactive) in each case. Further, the GI50 with UACC-62 is > 100 µM (inactive).

Turning to `CCc1c(O)c2c(c(O)c1C(C)=O)C(=O)c1c(cc(O)c(C(=O)O)c1C(=O)O)C2=O`, the GI50 with OVCAR-8, in the test on IGROV-1, in the test with SF-295, in the test with HT-29, in the test on SK-OV-3 and in the test on U-251 was > 100 µM (inactive) throughout. For the same compound, the GI50 with OVCAR-4, with UO-31, in the test on LOX IMVI, in the test with SW-620, in the test on HCT-116 and in the test with OVCAR-5 was > 100 µM (inactive) throughout. Besides, the GI50 with CCRF-CEM, with SN12C, with EKVX, with SNB-19, in the test with HOP-62 and in the test with SNB-75 was > 100 µM (inactive) each time. For the same compound, in the test with UACC-62, the GI50 was > 100 µM (inactive).

Regarding `O=C(c1ccccc1)c1nc2ccc(Cl)cc2c2c1CCCO2`, the GI50 with OVCAR-8 is > 100 µM (inactive); in the test on IGROV-1, > 100 µM (inactive); with SF-295, 50 µM (inactive); in the test on HT-29 it was > 100 µM (inactive); in the test on U-251, > 100 µM (inactive); in the test on OVCAR-4, > 100 µM (inactive). Besides, the GI50 in the test with UO-31, in the test with LOX IMVI, with SW-620, in the test on HCT-116, in the test with OVCAR-5 and with SN12C was > 100 µM (inactive) each time. Moreover, the GI50 with EKVX, with SNB-19, in the test with HOP-62 and in the test with UACC-62 was > 100 µM (inactive) throughout.

On to `Cc1cnc(Cl)nc1C(C#N)c1nc2ccccc2s1` (centres undefined), for which the GI50 with OVCAR-8 was 25.7 µM (inactive); with IGROV-1, 21.6 µM (inactive); in the test with SF-295, 19.8 µM (inactive); in the test with HT-29, 29.6 µM (inactive); in the test on SK-OV-3 it was 18 µM (inactive); with U-251, 20.1 µM (inactive). The GI50 is 22.8 µM (inactive) in the test with OVCAR-4; 31.7 µM (inactive) with UO-31; 18.8 µM (inactive) in the test on LOX IMVI; 33.6 µM (inactive) with SW-620; 10.5 µM (inactive) with HCT-116; 25.8 µM (inactive) with OVCAR-5. Moreover, the GI50 with SN12C is 14.1 µM (inactive); in the test on EKVX it was 32.8 µM (inactive); in the test on SNB-19, 34.2 µM (inactive); with HOP-62, 22.2 µM (inactive); in the test with SNB-75, 18.8 µM (inactive).

For `Cc1ccc(S(=O)(=O)OC[C@@H]2CO2)cc1`, the GI50 in the test on OVCAR-8, in the test with IGROV-1, in the test with HL-60, in the test on HT-29, in the test on OVCAR-4 and with UO-31 was > 100 µM (inactive) throughout. Further, the GI50 with LOX IMVI is 99.3 µM (inactive); in the test on SW-620, > 100 µM (inactive); in the test on HCT-116 it was > 100 µM (inactive); in the test on OVCAR-5, > 100 µM (inactive); in the test with CCRF-CEM, > 100 µM (inactive); with SN12C, > 100 µM (inactive). In addition, the GI50 in the test on EKVX, in the test on SNB-19, in the test on HOP-62 and with SNB-75 was > 100 µM (inactive) in each case.

For the compound `CC1C2CC(CC2O)C1(C)C` (centres undefined), the GI50 with OVCAR-8, with IGROV-1, in the test with SF-295, in the test with HL-60, with HT-29 and in the test on SK-OV-3 was > 100 µM (inactive) each time. Besides, the GI50 in the test on U-251, in the test on OVCAR-4, in the test with UO-31, in the test with SW-620, with HCT-116 and with OVCAR-5 was > 100 µM (inactive) throughout. Besides, the GI50 with CCRF-CEM, with SN12C, in the test on SNB-19, in the test on HOP-62, with SNB-75 and in the test with UACC-62 was > 100 µM (inactive) in each case.
